Data taken from PubChem BioAssay (NCI).
Where “and” joins values, the source holds several entries; their conditions need not be identical. Equal values may be shown once.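 Test compounds were applied to cells in 96-well plates for 48 hours at 5 doses. The concentration for 50% growth inhibition is given as GI50. The concentration for full growth arrest is given as TGI.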

Columns and labels:
Experiment in all cases: NCI tumour cell line growth inhibition, 48 h
[1] = test system: SW-620 colon
[2] = test system: KM12 colon
[3] = test system: SF-539 CNS
[4] = test system: SK-OV-3 ovarian
[5] = test system: EKVX NSCLC
[6] = test system: CAKI-1 renal
[7] = test system: RXF 393 renal
[8] = test system: SNB-75 CNS
[9] = test system: BT-549 breast
[10] = test system: NCI-H522 lung

COC1/C(=C\C(=O)OC(C)(C)C)c2ccccc2N1C(C)=O (stereo unspecified)
TGI [1]: > 100 µM
TGI [2]: > 100 µM
TGI [3]: > 100 µM
TGI [4]: > 100 µM
TGI [5]: > 100 µM
TGI [6]: > 100 µM
TGI [7]: > 100 µM
TGI [8]: > 100 µM

CC1(CO)OC1COCc1ccccc1 (stereo unspecified)
TGI [1]: > 100 µM
TGI [2]: > 100 µM
TGI [3]: > 100 µM
TGI [4]: > 100 µM
TGI [5]: > 100 µM
TGI [7]: > 100 µM
TGI [8]: > 100 µM

Nc1nc(Nc2ccc3c(c2)CC[C@@H](N2CCCC2)CC3)nn1-c1cc2c(nn1)-c1ccccc1CCC2
GI50 [1]: 1.7 µM
TGI [1]: 3.44 µM
GI50 [2]: 1.83 µM
TGI [2]: 3.71 µM
GI50 [9]: 1.6 µM
TGI [9]: 3.36 µM
GI50 [10]: 1.75 µM
TGI [10]: 3.79 µM
GI50 [4]: 1.66 µM
TGI [4]: 3.34 µM
GI50 [5]: 1.68 µM
TGI [5]: 3.29 µM
GI50 [6]: 1.22 µM
TGI [6]: 2.5 µM
GI50 [8]: 1.22 µM
TGI [8]: 2.48 µM

Cc1nc2c(=O)[nH]c(=O)n(C)c2[nH]c1=O
TGI [1]: > 100 µM
TGI [2]: > 100 µM
TGI [10]: > 100 µM
TGI [4]: > 100 µM
TGI [5]: > 100 µM
TGI [6]: > 100 µM
TGI [7]: > 100 µM
TGI [8]: > 100 µM

O=C(Nc1ccc(-n2cc(-c3ccncc3)c(-c3ccc(Cl)c(O)c3)n2)cc1)Nc1cc(C(F)(F)F)cc(C(F)(F)F)c1
GI50 [1]: 2.24 µM
TGI [1]: 4.44 µM
GI50 [2]: 1.6 µM
TGI [2]: 3.15 µM
GI50 [3]: 1.94 µM
TGI [3]: 6.4 µM
GI50 [9]: 1.49 µM
TGI [9]: 3.22 µM
GI50 [4]: 2.13 µM
TGI [4]: 5.43 µM
GI50 [5]: 1.97 µM
TGI [5]: 5.51 µM
GI50 [6]: 1.77 µM
TGI [6]: 3.57 µM
GI50 [7]: 1.45 µM
TGI [7]: 3.45 µM
GI50 [8]: 1.18 µM
TGI [8]: 3.88 µM

COc1ccc2c(c1)nc(N)c1c3cc(OC)c(OC)cc3cn21
GI50 [1]: < 0.01 µM
TGI [1]: 19.8 µM
GI50 [2]: 0.014 µM
TGI [2]: 12.7 µM
GI50 [3]: 0.0697 µM
TGI [3]: 1.69 µM
GI50 [9]: 0.827 µM
TGI [9]: 15.2 µM
GI50 [10]: < 0.01 µM
GI50 [4]: < 0.01 µM
TGI [4]: 0.321 µM
GI50 [5]: 1.81 µM
TGI [5]: 22 µM
TGI [6]: 19.8 µM
TGI [8]: 22.6 µM

O=C(O)c1c2c(c(C(=O)O)c3ccccc13)-c1ccccc1-2
TGI [1]: > 100 µM
TGI [2]: > 100 µM
TGI [3]: 85.5 µM
TGI [10]: > 100 µM
TGI [4]: 94.8 µM
TGI [5]: > 100 µM
TGI [7]: 66.9 µM
TGI [8]: > 100 µM

CC(=O)OCC1OC(OC2CC3C(C)(C)C(OC(C)=O)CC[C@]3(C)C3CCC45CC4(CC[C@H]5C(C)CC(O)[C@@H](O)C(C)(C)O)[C@]23C)C(O)C(O)C1O (stereo partly specified)
GI50 [1]: 3.54 µM
TGI [1]: 14 µM and 13.7 µM
GI50 [2]: 4.36 µM
TGI [2]: 14.2 µM and 14.1 µM
TGI [3]: 13.5 µM and 18.9 µM
TGI [10]: 7.17 µM and 7.74 µM
GI50 [4]: 12.4 µM
TGI [4]: 11.6 µM and 24.8 µM
GI50 [5]: 15.8 µM
TGI [5]: 13.1 µM and 29.2 µM
GI50 [6]: 6.07 µM
TGI [6]: 13.4 µM and 17.2 µM
TGI [7]: 13.9 µM
GI50 [8]: 5.04 µM
TGI [8]: 12 µM and 16.8 µM

COc1cc(NC(=O)c2cc(OC)c3ccn(C)c3c2)cc2c1C[C@]1(C)CC[C@@H](O)C(C)(C)[C@H]1O2
GI50 [1]: 11.2 µM
TGI [1]: > 100 µM
GI50 [2]: 9.92 µM
TGI [2]: > 100 µM
GI50 [3]: 1.37 µM
TGI [3]: 18.8 µM
GI50 [9]: 2.98 µM
TGI [9]: > 100 µM
GI50 [10]: 20.6 µM
TGI [10]: > 100 µM
GI50 [4]: 6.41 µM
TGI [4]: > 100 µM
GI50 [5]: 11.3 µM
TGI [5]: > 100 µM
GI50 [7]: 0.759 µM
TGI [7]: 4.28 µM
GI50 [8]: 1.89 µM
TGI [8]: 40.8 µM

COc1cc2c(c(OC)c1OC)-c1ccc(SC)c(=O)cc1[C@@H](NC(=O)c1ccc(OC(C)=O)cc1)CC2
TGI [1]: 31 µM
TGI [2]: 0.0407 µM
TGI [3]: 0.0357 µM
TGI [4]: 0.0683 µM and 0.0201 µM
TGI [5]: > 100 µM
TGI [6]: > 100 µM
TGI [7]: 0.0813 µM

NCCCN(CCCN)CCCNCc1c2ccccc2c(CNCCCN(CCCN)CCCN)c2ccccc12
TGI [1]: 32.5 µM
TGI [2]: 14 µM
TGI [3]: 30.2 µM
TGI [10]: 26.1 µM
TGI [5]: 28.4 µM
TGI [6]: 32.7 µM
TGI [7]: 45.2 µM
TGI [8]: 34.3 µM

COc1ccc(C2S/C(=C\c3cc(OC)c(OC)c(OC)c3)C(=O)N2NC(=O)Cc2ccccc2)cc1 (stereo unspecified)
TGI [1]: > 100 µM
TGI [2]: > 100 µM
TGI [3]: > 100 µM
TGI [10]: > 100 µM
TGI [4]: > 100 µM
TGI [6]: > 100 µM
TGI [7]: > 100 µM
TGI [8]: > 100 µM

COc1ccccc1C1=C2C(=O)N(C)C(c3ccccc3OC)=C2C(=O)N1C
TGI [1]: > 100 µM
TGI [2]: > 100 µM
TGI [3]: 64.2 µM
TGI [9]: > 100 µM
TGI [10]: > 100 µM
TGI [4]: > 100 µM
TGI [5]: > 100 µM
TGI [6]: > 100 µM

O=C1C(Cl)=C(Oc2ccc([N+](=O)[O-])cc2)C(=O)c2c(O)ccc(O)c21
TGI [1]: > 80.9 µM
TGI [2]: > 100 µM
TGI [3]: > 100 µM
TGI [9]: > 100 µM
TGI [10]: 40.2 µM
TGI [4]: > 100 µM
TGI [5]: > 100 µM
TGI [7]: 52.5 µM
TGI [8]: > 100 µM

C[C@@H]1O[C@@H](O[C@@H]2[C@@H](O)[C@H](OCCc3ccc(O)c(O)c3)O[C@H](COC(=O)/C=C/c3ccc(O)c(O)c3)[C@H]2O)[C@H](O)[C@H](O)[C@H]1O
GI50 [1]: 18.7 µM
TGI [1]: 37.9 µM
GI50 [2]: > 100 µM
TGI [2]: > 100 µM
GI50 [3]: > 100 µM
TGI [3]: > 100 µM
GI50 [9]: 12.8 µM
TGI [9]: 30 µM
GI50 [10]: > 100 µM
TGI [10]: > 100 µM
GI50 [4]: > 100 µM
TGI [4]: > 100 µM
GI50 [5]: 36.3 µM
TGI [5]: > 100 µM
GI50 [6]: 98.3 µM
TGI [6]: > 100 µM
GI50 [8]: > 100 µM
TGI [8]: > 100 µM

O=C(CNC(=O)OCc1ccccc1)Oc1ccccc1
TGI [1]: > 100 µM
TGI [2]: > 100 µM
TGI [3]: > 100 µM
TGI [10]: > 100 µM
TGI [4]: > 100 µM
TGI [5]: > 100 µM
TGI [7]: > 100 µM
TGI [8]: > 100 µM

COc1ccc(C(=O)C(c2ccc(OC)cc2)C2(O)C(=O)Nc3c(C)cc(Cl)cc32)cc1 (stereo unspecified)
TGI [1]: > 100 µM
TGI [2]: > 100 µM
TGI [3]: > 100 µM
TGI [10]: > 100 µM
TGI [4]: > 100 µM
TGI [5]: > 100 µM
TGI [7]: > 100 µM
TGI [8]: > 100 µM

CCOC(=O)/C(=C\c1ccc(OCc2ccccc2)c(OC)c1)C(=O)c1ccccc1
TGI [1]: 40 µM
TGI [2]: 41.2 µM
TGI [3]: 31.2 µM
TGI [10]: 32.6 µM
TGI [4]: > 100 µM
TGI [5]: 66.2 µM
TGI [6]: 64.7 µM

C=CC[C@H]1C[C@@]2(C)OC[C@H](C(C)C)N2C1=O
TGI [1]: > 100 µM
TGI [2]: > 100 µM
TGI [3]: > 100 µM
TGI [5]: > 100 µM
TGI [6]: > 100 µM
TGI [7]: > 100 µM
TGI [8]: > 100 µM
